# Measurements: patent US20240025893A1, “PYRIMIDINE-AND NITROGEN-CONTAINING BICYCLIC COMPOUND” (Asahi Kasei Pharma Corporation, priority 2020, published 2024)
# How the values were obtained:
# [1] = system: LPS-stimulated TNFα production in THP-1 cells; assay: LPS-stimulated TNFα production inhibition test using human acute monocytic leukemia cell strain THP-1; format: cell-based; settings: Homo sapiens, THP-1, 4 h, LPS 2.5 ng/mL, average values
# In short: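 Readout was HTRF-measured TNFα in supernatants, calibrated against a standard curve, after LPS challenge (2.5 ng/mL final, 4 h) of THP-1 cells pretreated 1 h at 37 °C with compound. Unstimulated wells defined 100% suppression and vehicle wells 0%. IC50 was fitted with a 4-parameter logistic model.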
# [2] = target: human IRAK-4 (Homo sapiens (Human), UniProt Q9NWZ3); assay: Measurement of human IRAK-4 inhibitory activity (TR-FRET, peptide substrate phosphorylation, 10 μM ATP); format: biochemical; settings: 1 nM IRAK-4, 10 μM ATP, 23° C., 30 minutes; average values
# In short: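 With 1 nM IRAK-4, 0.5 μM biotinylated peptide and 10 μM ATP, compound incubated 30 min at 23 °C in 50 mM HEPES pH 7.2 with Mg2+/Mn2+. Stopped with EDTA plus europium-cryptate anti-phosphopeptide antibody and streptavidin-XL665, 60 min at 23 °C. Activity taken as the 665/620 nm TR-FRET ratio.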
# [3] = system: collagen-induced arthritis in Lewis rats; assay: Rat collagen-induced arthritis model (footpad volume); format: in vivo; settings: 19 days after first immunization
# Protocol: Eight weeks old female Lewis rats (SLC Inc.) were immunized with bovine type II collagen (CII, Collagen Technical Study Session, product number K41) to induce arthritis. A 1:1 mixed emulsion of the incomplete Freund's adjuvant (Difco, Cat. 263910) and a 3 mg/mL solution of CII was prepared, and 0.7 mL of the emulsion was injected to each rat at seven sites in the tale base part and skins of both fore and hind legs in a volume of 0.1 mL per site. Booster immunization was performed after 7 days by injecting 0.2 mL of the same 1:1 mixed emulsion of the incomplete Freund's adjuvant and CII as that used in the first day at two sites in the tale base part in a volume of 0.1 mL per site. After 12 days, footpad volumes of the both hind feet of the animals were measured by using Plethysmometer (UGO BASILE, Cat. 37140), and the individual animals were divided into groups according to the footpad volume ratio based on that of the normal group and body weight. After they were divided into groups, administration of a test compound or a solvent (vehicle, 0.5% methylcellulose) was started, and it was orally administered twice a day for 7 days (provided that, on the day of grouping, the administration was performed only once after grouping). After the start of the administration, the footpad volumes of both hind feet of the animals were measured every other day or every 3 days by using Plethysmometer, and influence of the test compound was evaluated.
# Average value of the footpad volumes was calculated for each individual on each measurement day by using Excel 2010 (Microsoft), and plotted as a graph by using GraphPadPrism 7.03 (GraphPad Software, Inc.). The normal group was defined to be a 100% suppression group, and the solvent administration group was defined to be a 0% suppression group. The suppression ratios based on these controls were calculated for each concentration of the test compound by using Excel 2010 (Microsoft).
# human IRAK-4, sequence (Q9NWZ3 whole entry): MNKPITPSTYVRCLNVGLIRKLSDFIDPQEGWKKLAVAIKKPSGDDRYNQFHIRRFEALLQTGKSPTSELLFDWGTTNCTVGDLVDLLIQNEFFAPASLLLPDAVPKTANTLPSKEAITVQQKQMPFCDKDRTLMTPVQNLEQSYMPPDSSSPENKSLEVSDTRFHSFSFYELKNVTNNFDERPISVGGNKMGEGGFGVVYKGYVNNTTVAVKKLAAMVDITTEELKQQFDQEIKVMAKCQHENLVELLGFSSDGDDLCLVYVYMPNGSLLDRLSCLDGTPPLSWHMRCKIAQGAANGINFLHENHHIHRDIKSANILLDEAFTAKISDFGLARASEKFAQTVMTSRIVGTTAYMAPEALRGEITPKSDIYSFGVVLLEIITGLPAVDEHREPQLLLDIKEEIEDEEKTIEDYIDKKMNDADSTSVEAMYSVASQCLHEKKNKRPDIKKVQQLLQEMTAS
compound,measurement,setting,value
"COc1c(-c2cnc(CO[C@H]3CCC[C@@H]3O)nc2)ccc2nc(NC(=O)C3CC3)sc12 [c-01-01, N-(6-(2-((((1S,2S)-2-Hydroxycyclopentyl)oxy)methyl)pyrimidin-5-yl)-7-methoxybenzo[d]thiazol-2-yl)cyclopropanecarboxamide]",IC50,[1],143 nM
same,IC50,[2],3.92 nM
same,suppression ratio (footpad volume),[3]; 20 mg/kg orally twice a day,45%
same,suppression ratio (footpad volume),[3]; 60 mg/kg orally twice a day,65%
same,suppression ratio (footpad volume),[3]; 120 mg/kg orally twice a day,77%
